The target in the assay is human JAK1 (a.a. 837-1142). Description: In vitro JAK kinase assay (HTRF, phosphorylation of a biotinylated peptide), JAK1. Type of assay: biochemical. The conditions noted are these: measured at 1 mM ATP; JAK2 IC50 / JAK1 IC50. An outline of the steps:
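Phosphorylation of a biotinylated peptide by purified His-tagged JAK catalytic domains (insect-cell baculovirus expression) ran 1 hr at room temperature. After stopping with EDTA, Eu-Py20 and SA-APC were bound for 40 minutes and HTRF measured.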
A general note: In TR-FRET formats the signal depends on donor and acceptor labels being close together.

For `N#CCC1(n2ccc(-c3ncnc4[nH]ccc34)c2)CN(C2CCN(C(=O)c3cc(F)ccc3F)CC2)C1` [Example 278, {1-[1-(2,5-difluorobenzoyl)piperidin-4-yl]-3-[3-(7H-pyrrolo[2,3-d]pyrimidin-4-yl)-1H-pyrrol-1-yl]azetidin-3-yl}acetonitrile], the “IC50 Ratio JAK2/JAK1” value is on record as 5.6. For `N#CCC1(n2ccc(-c3ncnc4[nH]ccc34)c2)CN(C2CCN(C(=O)c3ccc(C(F)(F)F)c(F)c3)CC2)C1` [Example 267, {1-{1-[3-fluoro-4-(trifluoromethyl)benzoyl]piperidin-4-yl}-3-[3-(7H-pyrrolo[2,3-d]pyrimidin-4-yl)-1H-pyrrol-1-yl]azetidin-3-yl}acetonitrile], the “IC50 Ratio JAK2/JAK1” value is reported as 6.6. Turning to `Cc1ccc(Cl)cc1NC(=O)N1CCC(N2CC(CC#N)(n3cc(-c4ncnc5[nH]ccc45)cn3)C2)CC1` [Example 168, N-(5-chloro-2-methylphenyl)-4-{3-(cyanomethyl)-3-[4-(7H-pyrrolo[2,3-d]pyrimidin-4-yl)-1H-pyrazol-1-yl]azetidin-1-yl}piperidine-1-carboxamide], the “IC50 Ratio JAK2/JAK1” value is given as 2.6.

Regarding `N#CCC1(n2cc(-c3ncnc4[nH]ccc34)cn2)CN(C2CCN(C(=O)c3cc(Cl)cc(C(F)(F)F)n3)CC2)C1` [Example 53, {1-(1-{[4-chloro-6-(trifluoromethyl)pyridin-2-yl]carbonyl}piperidin-4-yl)-3-[4-(7H-pyrrolo[2,3-d]pyrimidin-4-yl)-1H-pyrazol-1-yl]azetidin-3-yl}acetonitrile], the “IC50 Ratio JAK2/JAK1” value is on record as 9.4. In the case of `N#CCC1(n2cc(-c3ncnc4[nH]ccc34)cn2)CN(C2CCN(C(=O)c3cc(F)c(F)cc3F)CC2)C1` [Example 48, {3-[4-(7H-pyrrolo[2,3-d]pyrimidin-4-yl)-1H-pyrazol-1-yl]-1-[1-(2,4,5-trifluorobenzoyl)piperidin-4-yl]azetidin-3-yl}acetonitrile] it was 6.5; in that of `N#CCC1(n2cc(-c3c(F)cnc4[nH]ccc34)cn2)CN(C2CCN(C(=O)c3cnc(C(F)(F)F)cn3)CC2)C1` [Example 354, [3-[4-(5-Fluoro-1H-pyrrolo[2,3-b]pyridin-4-yl)-1H-pyrazol-1-yl]-1-(1-{[5-(trifluoromethyl)pyrazin-2-yl]carbonyl}piperidin-4-yl)azetidin-3-yl]acetonitrile], 2.1; in that of `N#CCC1(n2cc(-c3ncnc4[nH]ccc34)cn2)CN(C2CCN(Cc3ccc(-c4conn4)cc3)CC2)C1` [Example 221, {1-{1-[4-(1,2,3-oxadiazol-4-yl)benzyl]piperidin-4-yl}-3-[4-(7H-pyrrolo[2,3-d]pyrimidin-4-yl)-1H-pyrazol-1-yl]azetidin-3-yl}acetonitrile], 1.3. For `N#CCC1(n2cc(-c3ncnc4[nH]ccc34)cn2)CN(C2CCN(Cc3c(F)ccc(Cl)c3F)CC2)C1` [Example 228, {1-[1-(3-chloro-2,6-difluorobenzyl)piperidin-4-yl]-3-[4-(7H-pyrrolo[2,3-d]pyrimidin-4-yl)-1H-pyrazol-1-yl]azetidin-3-yl}acetonitrile] the value was 3.9; for `N#CCC1(n2ccc(-c3ncnc4[nH]ccc34)c2)CN(C2CCN(C(=O)c3ccc(F)c(F)c3F)CC2)C1` [Example 280, {3-[3-(7H-pyrrolo[2,3-d]pyrimidin-4-yl)-1H-pyrrol-1-yl]-1-[1-(2,3,4-trifluorobenzoyl)piperidin-4-yl]azetidin-3-yl}acetonitrile], 7.5.

As to `N#CCC1(n2cc(-c3ncnc4[nH]ccc34)cn2)CN(C2CCN(Cc3ccnc(C(F)(F)F)c3F)CC2)C1` [Example 231, {1-(1-{[3-fluoro-2-(trifluoromethyl)pyridin-4-yl]methyl}piperidin-4-yl)-3-[4-(7H-pyrrolo[2,3-d]pyrimidin-4-yl)-1H-pyrazol-1-yl]azetidin-3-yl}acetonitrile], the “IC50 Ratio JAK2/JAK1” value is on record as 5.1.

Consider `N#CCC1(n2cc(-c3ncnc4[nH]ccc34)cn2)CN(C2CCN(C(=O)c3ccc(-c4ccc(F)c(F)c4)c(F)c3)CC2)C1` [Example 127, (3-[4-(7H-pyrrolo[2,3-d]pyrimidin-4-yl)-1H-pyrazol-1-yl]-1-{1-[(2,3′,4′-trifluorobiphenyl-4-yl)carbonyl]piperidin-4-yl}azetidin-3-yl) acetonitrile], for which the “IC50 Ratio JAK2/JAK1” value stood at 4.3. For `N#CCC1(n2cc(-c3ncnc4[nH]ccc34)cn2)CN(C2CCN(C(=O)c3ccsc3)CC2)C1` [Example 15, {3-[4-(7H-pyrrolo[2,3-d]pyrimidin-4-yl)-1H-pyrazol-1-yl]-1-[1-(3-thienylcarbonyl)piperidin-4-yl]azetidin-3-yl}acetonitrile] the value was 5.3; for `N#CCC1(n2cc(-c3ncnc4[nH]ccc34)cn2)CN(C2CCN(C(=O)c3c(F)cc(C#N)cc3F)CC2)C1` [Example 83, 4-[(4-{3-(cyanomethyl)-3-[4-(7H-pyrrolo[2,3-d]pyrimidin-4-yl)-1H-pyrazol-1-yl]azetidin-1-yl}piperidin-1-yl)carbonyl]-3,5-difluorobenzonitrile], 5.8.

`N#CCC1(n2cc(-c3ncnc4[nH]ccc34)cn2)CN(C2CCN(C(=O)c3cccc4ccccc34)CC2)C1` [Example 87, {1-[1-(1-naphthoyl)piperidin-4-yl]-3-[4-(7H-pyrrolo[2,3-d]pyrimidin-4-yl)-1H-pyrazol-1-yl]azetidin-3-yl}acetonitrile]: the “IC50 Ratio JAK2/JAK1” value stood at 0.3.

Turning to `COc1cscc1C(=O)N1CCC(N2CC(CC#N)(n3cc(-c4ncnc5[nH]ccc45)cn3)C2)CC1` [Example 72, {1-{1-[(4-methoxy-3-thienyl)carbonyl]piperidin-4-yl}-3-[4-(7H-pyrrolo[2,3-d]pyrimidin-4-yl)-1H-pyrazol-1-yl]azetidin-3-yl} acetonitrile], the “IC50 Ratio JAK2/JAK1” value is listed as 6.6. For `COc1c(Br)cc(C(=O)N2CCC(N3CC(CC#N)(n4cc(-c5ncnc6[nH]ccc56)cn4)C3)CC2)cc1Br` [Example 50, {1-[1-(3,5-dibromo-4-methoxybenzoyl)piperidin-4-yl]-3-[4-(7H-pyrrolo[2,3-d]pyrimidin-4-yl)-1H-pyrazol-1-yl]azetidin-3-yl}acetonitrile] the value was 6.9; for `N#CCC1(n2cc(-c3ncnc4[nH]ccc34)cn2)CN(C2CCN(C(=O)C3(c4ccccc4)CC3)CC2)C1` [Example 110, {1-{1-[(1-phenylcyclopropyl)carbonyl]piperidin-4-yl}-3-[4-(7H-pyrrolo[2,3-d]pyrimidin-4-yl)-1H-pyrazol-1-yl]azetidin-3-yl}acetonitrile], 1.6; for `N#CCC1(n2cc(-c3c(F)cnc4[nH]ccc34)cn2)CN(C2CCN(C(=O)c3ccc(C#N)cc3F)CC2)C1` [Example 317, 4-[(4-{3-(cyanomethyl)-3-[4-(5-fluoro-1H-pyrrolo[2,3-b]pyridin-4-yl)-1H-pyrazol-1-yl]azetidin-1-yl}piperidin-1-yl)carbonyl]-3-fluorobenzonitrile], 4.5. In the case of `N#CCC1(n2cc(-c3ccnc4[nH]ccc34)cn2)CN(C2CCN(C(=O)c3ccc(O)c(F)c3)CC2)C1` [Example 296] it was 4.6.

For the origin of these results see patent US10695337B2, “Piperidin-4-yl azetidine derivatives as JAK1 inhibitors” (Incyte Corporation, priority 2010, dated 2020).
